The values below come from ChEMBL document CHEMBL1150506, “S-nitrosation of proteins by N-methyl-N-nitrosoanilines” (Bioorg Med Chem Lett, 1996).

One assay concerns the target T1, Papain (Carica papaya, UniProt P00784).
T1 sequence (P00784 whole entry): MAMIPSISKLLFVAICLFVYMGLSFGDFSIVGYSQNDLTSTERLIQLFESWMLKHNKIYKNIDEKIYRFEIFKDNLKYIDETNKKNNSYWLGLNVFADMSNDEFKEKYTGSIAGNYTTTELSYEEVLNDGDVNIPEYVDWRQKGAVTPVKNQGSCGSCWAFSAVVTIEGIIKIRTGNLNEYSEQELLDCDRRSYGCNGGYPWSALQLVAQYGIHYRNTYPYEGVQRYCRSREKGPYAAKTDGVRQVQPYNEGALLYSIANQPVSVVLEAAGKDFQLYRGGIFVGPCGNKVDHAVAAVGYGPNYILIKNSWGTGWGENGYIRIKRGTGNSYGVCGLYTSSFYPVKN
The experiment in a line: (§1) Pseudo-first order rate constant for inhibition of thiol-dependent papain enzyme.
Consider `CN(N=O)c1cccc(O)c1`, for which the “pseudo-first-order inhibition rate constant” value stood at 0.036 min⁻¹. On the same count and under the same terms, next, `CN(N=O)c1ccccc1[N+](=O)[O-]`: 0.026 min⁻¹; `CN(N=O)c1ccccc1O`: 0.011 min⁻¹; `CN(N=O)c1ccc(Cl)cc1`: 0.017 min⁻¹.

For the molecule `CN(N=O)c1ccccc1`, the “pseudo-first-order inhibition rate constant” value amounted to 0.057 min⁻¹.

Target in another assay: not listed separately
Described as §1.
Molecule `CN(C)c1ccc(N(C)N=O)cc1` showed a Ki of 0.243 min⁻¹. As to `CN(N=O)c1ccc(O)cc1`, the Ki amounted to 0.009 min⁻¹. Consider `CN(N=O)c1cc(O)ccc1O` [DEPHOSTATIN], for which the Ki was found to be 0.328 min⁻¹.
